In US8906916B2, “Pyrimidine derivatives as FAK inhibitors” (Merck Patent GmbH, priority 2010, dated 2014):

Tests used:
[1] = target: focal adhesion kinase (FAK) (Homo sapiens, UniProt Q05397); test: FAK kinase assay (autophosphorylation), 384-well flashplate; format: biochemical; conditions: FAK inhibition, enzymatic autophosphorylation assay, 1 μM ATP
Experimental: FAK Kinase Assay (Autophosphorylation)
The focal adhesion kinase (FAK) assay is carried out either as a 384-well flashplate assay (for example for Topcount measurements) or as a 384-well image flashplate assay (for LEADseeker measurements). 2 nM FAK, 400 nM biotinylated substrate (His-TEV-hsFAK (31 686)(K454R) x biotin) and 1 μM ATP (to which […] of 33P-ATP/well has been added) are incubated at 30° C. for 2 hours with or without test compound in a total volume of 50 μl (60 mM Hepes, 10 mM MgCl2, 1.2 mM dithiothreitol, 0.02% of Brij35, 0.1% of BSA, pH 7.5). The reaction is stopped using 25 μl of 200 mM EDTA. After 30 min at 30° C., the liquid is removed, and each well is washed three times with 100 μl of 0.9% sodium chloride solution. Non-specific reaction is determined in the presence of 1 μM EMD 1076893/0(PF-562271). The radioactivity is measured using Topcount (in the case of the use of flashplates) or using LEADseeker (in the case of the use of image flashplates). Results (for example IC50 values) are calculated using, for example, a Symyx Assay Explorer.

FAK = target: T1, FAK (Homo sapiens, UniProt Q05397); test: Cellular testing of FAK kinase inhibitors: autophosphorylation of FAK at tyrosine 397 in HT29 cells (Luminex); format: cell-based; conditions: FAK inhibition, P-Y397-FAK in HT29 cells, 30 min, serum-free
T1 construct: HT29 cells are sown out with 30,000 cells per well; endogenous in cells; host or cells: HT29
Experimental: Method for the Cellular Testing of FAK Kinase Inhibitors
For analysis of the cellular activity of FAK, the extent of autophosphorylation of FAK at tyrosine 397 is determined with the aid of a Luminex-based assay in the 96-well format. HT29 cells are sown out with 30,000 cells per well in 100 μl of medium (90% of DMEM/10% of FCS) and incubated on the following day for 30 min with a serial dilution of the test substance (7 concentrations) under serum-free conditions. The cells are subsequently lysed using 90 μl of lysis buffer (20 mM tris/HCl pH 8.0, 150 mM NaCl, 1% of NP40, 10% of glycerol, 1% of phosphatase inhibitor II, 20 mM p-glycerol phosphate, 0.1% of protease inhibitor cocktail III, 0.01% of benzonase) per well, and the lysates are separated off from insoluble cell constituents by means of centrifugation through a 96-well filter plate (0.65 μm). The lysates are incubated at 4° C. overnight with shaking with Luminex beads to which an anti-total FAK antibody is coupled. The detection is carried out on the following day by addition of a P-Y397-FAK antibody and a species-specific PE-labelled secondary antibody. P-Y397-FAK is detected by measurement in the Luminex100 instrument by determination of 100 events per cavity in a measurement time of 60 sec. As pharmacological blank, the signals obtained from cells treated with 30 μM of an FAK reference inhibitor are subtracted from all other batches. The control value used for maximum phosphorylation of FAK at Y397 are the signals from cells treated only with the solvent (0.3% of DMSO). The values of the batches treated with test substance are calculated therefrom as percent of control, and IC50 values are determined by means of Assay Explorer.

Sequence of focal adhesion kinase (FAK) (Q05397 whole entry): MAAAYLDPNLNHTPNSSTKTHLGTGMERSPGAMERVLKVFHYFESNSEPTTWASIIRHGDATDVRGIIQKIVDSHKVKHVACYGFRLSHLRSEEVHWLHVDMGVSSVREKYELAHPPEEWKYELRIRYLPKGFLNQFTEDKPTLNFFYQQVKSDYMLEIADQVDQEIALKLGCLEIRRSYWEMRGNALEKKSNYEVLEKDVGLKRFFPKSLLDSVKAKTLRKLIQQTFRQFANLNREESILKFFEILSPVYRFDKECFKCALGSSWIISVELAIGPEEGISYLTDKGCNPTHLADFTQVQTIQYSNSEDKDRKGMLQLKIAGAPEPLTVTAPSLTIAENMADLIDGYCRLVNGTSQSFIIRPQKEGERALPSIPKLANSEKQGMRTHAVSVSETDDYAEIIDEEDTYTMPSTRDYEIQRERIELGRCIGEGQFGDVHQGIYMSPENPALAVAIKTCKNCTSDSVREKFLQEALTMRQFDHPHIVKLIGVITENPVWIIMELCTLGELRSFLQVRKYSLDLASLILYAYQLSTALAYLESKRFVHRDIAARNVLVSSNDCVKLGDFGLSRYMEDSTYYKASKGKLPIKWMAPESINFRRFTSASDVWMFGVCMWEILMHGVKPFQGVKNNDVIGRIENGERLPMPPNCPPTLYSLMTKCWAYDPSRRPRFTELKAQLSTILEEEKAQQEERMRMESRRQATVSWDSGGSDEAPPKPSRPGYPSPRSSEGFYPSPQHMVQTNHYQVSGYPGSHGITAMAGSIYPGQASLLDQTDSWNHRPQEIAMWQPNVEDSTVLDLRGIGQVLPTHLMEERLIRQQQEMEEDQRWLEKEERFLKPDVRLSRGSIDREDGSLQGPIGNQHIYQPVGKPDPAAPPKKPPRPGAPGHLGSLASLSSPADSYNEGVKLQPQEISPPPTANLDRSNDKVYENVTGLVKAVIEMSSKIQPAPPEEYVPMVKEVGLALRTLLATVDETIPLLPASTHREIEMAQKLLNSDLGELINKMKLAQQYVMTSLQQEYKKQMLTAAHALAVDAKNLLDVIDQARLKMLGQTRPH
T1 sequence (Q05397 whole entry): as above

Row | SMILES | IC50 [1] | IC50 (FAK)
1 | O=C1Cc2cc(Nc3ncc(C(F)(F)F)c(CCc4ccccc4)n3)ccc2N1 [A102] | 0.3 to 3 µM | 
2 | CN(c1ncccc1CCc1ccnc(Nc2ccc3c(c2)CCC(=O)N3)n1)S(C)(=O)=O [A7] | 0.3 to 3 µM | 
3 | CN(c1ncccc1CCc1ccnc(Nc2ccc3[nH]c(=O)oc3c2)n1)S(C)(=O)=O [A20] | 0.3 to 3 µM | 
4 | CN(c1ccccc1CCc1ccnc(Nc2ccc(F)c(C#N)c2)n1)S(C)(=O)=O [A29] | 3 to 50 µM | 
5 | CN(c1ccccc1CCc1ccnc(Nc2cc(Cl)c(N3CCCC3=O)c(Cl)c2)n1)S(C)(=O)=O [A36] | 0.3 to 3 µM | 
6 | CN(c1ccccc1CCc1ccnc(Nc2ccc3[nH]c(=O)oc3c2)n1)S(C)(=O)=O [A27] | 0.3 to 3 µM | 
7 | Cc1cnc(N(C)S(C)(=O)=O)c(CCc2ccnc(Nc3ccc4c(c3)CC(=O)N4)n2)c1 [A44] | < 0.3 µM | 
8 | CN(c1ccccc1CCc1ccnc(Nc2ccc(N3CCOCC3=O)cc2)n1)S(C)(=O)=O [A33] | 0.3 to 3 µM | 
9 | CN(c1ccccc1CCc1ccnc(Nc2ccc3sc(=O)[nH]c3c2)n1)S(C)(=O)=O [A30] | 0.3 to 3 µM | 
10 | O=C1CCc2cc(Nc3ncc(C(F)(F)F)c(CCc4ccccc4)n3)ccc2N1 [A103] | 0.3 to 3 µM | 
11 | CN(c1ncccc1CCc1ccnc(Nc2ccc(N3CCOCC3=O)cc2)n1)S(C)(=O)=O [A41] | 0.3 to 3 µM | 
12 | N#CC1(c2ccc(F)cc2CCc2ccnc(Nc3ccc4c(c3)CC(=O)N4)n2)CCC1 [A45] | < 0.3 µM | 
13 | CN(c1ncccc1CCc1ccnc(Nc2ccc3c(c2)n(C)c(=O)n3C)n1)S(C)(=O)=O [A25] | 0.3 to 3 µM | 3 to 50 µM
14 | CC(=O)N1CCc2cc(Nc3nccc(CCc4ccccc4N(C)S(C)(=O)=O)n3)ccc21 [A31] | < 0.3 µM | 3 to 50 µM
15 | CN(c1ccccc1CCc1ccnc(Nc2cccc(C#N)c2)n1)S(C)(=O)=O [A28] | 0.3 to 3 µM | 
16 | N#CC1(c2cc(F)ccc2CCc2ccnc(Nc3ccc4c(c3)CC(=O)N4)n2)CCC1 [A46] | 0.3 to 3 µM | 
17 | CN(c1ncccc1CCc1ccnc(Nc2cccc(C#N)c2)n1)S(C)(=O)=O [A22] | 3 to 50 µM | 
18 | CN(c1ncccc1CCc1ccnc(Nc2ccc(NC(=O)c3cccnc3)cc2)n1)S(C)(=O)=O [A40] | 0.3 to 3 µM | 
19 | CN1C(=O)Cc2cc(Nc3nccc(CCc4cccnc4N(C)S(C)(=O)=O)n3)ccc21 [A21] | 0.3 to 3 µM | 

Row | SMILES | IC50 [1] | IC50 (FAK)
20 | CN(c1ccccc1CCc1ccnc(Nc2ccc3c(c2)CCC(=O)N3)n1)S(C)(=O)=O [A2, N-methyl-N-(2-{2-[2-(2-oxo-1,2,3,4-tetrahydroquinolin-6-ylamino)pyrimidin-4-yl]ethyl}phenyl)methanesulfonamide] | < 0.3 µM | 3 to 50 µM
21 | CN(c1ccccc1CCc1ccnc(Nc2ccc(N3CCCC3=O)cc2)n1)S(C)(=O)=O [A35] | 0.3 to 3 µM | 
22 | CN(c1ccccc1CCc1ccnc(Nc2ccc(S(C)(=O)=O)cc2)n1)S(C)(=O)=O [A1, N-(2-{2-[2-(4-methanesulfonylphenylamino)pyrimidin-4-yl]ethyl}-phenyl)-N-methylmethanesulfonamide] | 3 to 50 µM | 
23 | CN(c1ccccc1CCc1ccnc(Nc2ccc(N3CCCCC3=O)c(C#N)c2)n1)S(C)(=O)=O [A37] |  | 0.3 to 3 µM
24 | CNC(=O)Cc1ccc(Nc2nccc(CCc3ccccc3N(C)S(C)(=O)=O)n2)cc1 [A32] | 0.3 to 3 µM | 
25 | N#CC1(c2ncccc2CCc2ccnc(Nc3ccc4c(c3)CC(=O)N4)n2)CNC1 [A16, 3-(3-{2-[2-(2-oxo-2,3-dihydro-1H-indol-5-ylamino)pyrimidin-4-yl]ethyl}pyridin-2-yl)azetidine-3-carbonitrile] | 3 to 50 µM | 
26 | N#CCc1ccccc1CCc1ccnc(Nc2ccc3c(c2)CC(=O)N3)n1 [A9] | 0.3 to 3 µM | 
27 | CN(c1ccccc1CCc1ccnc(Nc2ccc3c(c2)CC(=O)N3)n1)S(C)(=O)=O [A5] | < 0.3 µM | 
28 | N#CC1(c2ccccc2CCc2ccnc(Nc3ccc4c(c3)CC(=O)N4)n2)CCC1 [A13] | 0.3 to 3 µM | 
29 | CN(c1ccccc1CCc1ccnc(Nc2ccc(N3C(=O)c4ccccc4C3=O)cc2)n1)S(C)(=O)=O [A38] | 0.3 to 3 µM | 
30 | CN(c1ncccc1CCc1ccnc(Nc2ccc3c(c2)CC(=O)N3)n1)S(C)(=O)=O [A6] | 0.3 to 3 µM | 
31 | N#CCc1ccc(F)cc1CCc1ccnc(Nc2ccc3c(c2)CC(=O)N3)n1 [A11] | 0.3 to 3 µM | 
32 | CN(c1ncccc1CCc1ccnc(NCc2ccc(=O)[nH]n2)n1)S(C)(=O)=O [A24] |  | 3 to 50 µM
33 | CS(=O)(=O)c1cccc(CCc2ccnc(Nc3ccc4c(c3)CCC(=O)N4)n2)c1 [A3] | 3 to 50 µM | 
34 | CN(c1ccccc1CCc1ccnc(Nc2ccc(NC(=O)c3cccnc3)cc2)n1)S(C)(=O)=O [A34] | < 0.3 µM | 0.3 to 3 µM
35 | CN(c1ncccc1CCc1ccnc(Nc2ccc(N3C(=O)c4ccccc4C3=O)cc2)n1)S(C)(=O)=O [A43] | 0.3 to 3 µM | 
36 | O=C1CCc2cc(Nc3ncc(Br)c(CCc4ccccc4)n3)ccc2N1 [A101] | 0.3 to 3 µM | 
37 | CN(c1ncccc1CCc1ccnc(Nc2ccc(N3CCCC3=O)cc2)n1)S(C)(=O)=O [A39] | 0.3 to 3 µM | 
